Laboratory results as given in publication PMC9769502 (Microbiology Spectrum, 2022).
Like-named read-outs stand apart in the source and are kept apart here. No end group written: not given here.

What was measured:
[1] = test system: Leishmania donovani axenic amastigotes
Procedure: We utilized a previously developed high-throughput screening assay using transgenic axenic amastigotes expressing a red fluorescent protein, mCherry. Changes in mCherry fluorescence were normalized to 50 μM miltefosine in order to quantify parasite inhibition ([52]). In total, 5 scaffold 25-mer peptides and 475 synthetic 25-mer peptide variants were screened (Fig. 1). […] The assay was repeated, and the average percent parasite killing was determined.
Axenic amastigotes were differentiated as described previously ([69]).
Axenic amastigotes were differentiated as described previously ([69]); briefly, transgenic L. donovani promastigotes expressing mCherry were differentiated by pH and temperature shifts. Amastigotes were seeded into 96-well plates at 5 × 10^6 cells/mL and incubated for 48 h in the presence of decreasing drug concentrations, starting at 20 μM, along with the appropriate solvent controls. Fluorescence was monitored (587-nm excitation/610-nm emission) over 48 h using a FlexStation 3 benchtop multimode reader (Molecular Devices). […] Thus, changes in mCherry fluorescence were normalized to the 50 μM miltefosine control in order to quantify parasite inhibition. Each assay was performed in triplicate. The IC50 values were calculated by nonlinear regression analysis using GraphPad Prism 9.0 for Windows.

THP-1 macrophages = test: Cytotoxicity against THP-1 macrophages (CellTiter-Blue); format: cell-based, human
Procedure: THP-1 (human acute monocytic leukemia-derived) host macrophages were cultured in RPMI 1640 supplemented with 10% FCS and a penicillin-streptomycin antibiotic solution (10,000 U/mL penicillin, 10,000 μg/mL streptomycin) at 37°C with 5% CO2. THP-1 cells were incubated with 0.25 μM phorbol 12-myristate […] (PMA) for 48 h to differentiate into mature macrophages. Differentiated macrophages were seeded into 96-well plates at 5 × 10^6 cells/mL and incubated for 48 h in the presence of 20 μM antimicrobial peptides along with the appropriate solvent controls. Cell viability assays were conducted using CellTiter-Blue (Promega), based on resazurin reduction. After the 48-h incubation period, CellTiter-Blue reagent was added to cells for 4 h at 37°C, and fluorescence was measured (555-nm excitation/580-nm emission) using a FlexStation 3 benchtop multimode reader (Molecular Devices). Each assay was performed in triplicate. The CC50 values were calculated by nonlinear regression analysis using GraphPad Prism 9.0 for Windows.

[2] = read-out: Axenic amastigotes Mean IC50 ± SD, L. donovani mCherry axenic amastigotes, 48 h, fluorescence normalized to 50 μM miltefosine, highest concentration 20 μM, mean of three replicates
[3] = read-out: Axenic amastigotes Mean IC50 ± SD

## AGKETIRQFLKKTIQEKGKRAKIWW [Syn-larvacin 69]
[1]; 48 h
  IC50: 4.14 ± 0.11 µM
THP-1 macrophages
  THP-1 macrophage CC50: > 20 µM
THP-1 macrophages; 48 h
  THP-1 macrophage CC50: >20 µM

## AGKETIRQKLKNEIKKKGRKAVIAW [Syn-safencin 7]
[1]; 48 h
  IC50: 0.77 ± 0.08 µM
THP-1 macrophages
  THP-1 macrophage CC50: > 20 µM
THP-1 macrophages; 48 h
  THP-1 macrophage CC50: >20 µM

## AGKETIRQKWKNEIKKKGRKAVIAW [Syn-safencin-39]
[1]; [2]
  IC50: 0.72 µM
THP-1 macrophages
  THP-1 macrophage CC50: < 20 µM

## AGKETIRQYLKNEIKKKGRKAVIWW [Syn-safencin-81]
[1]; [2]
  IC50: 3.15 µM
THP-1 macrophages
  THP-1 macrophage CC50: < 20 µM

## AGKETIRQYLKNEIKKKGRKAVWAW [Syn-safencin 73]
[1]; 48 h
  IC50: 0.35 ± 0.08 µM
THP-1 macrophages
  THP-1 macrophage CC50: > 20 µM
THP-1 macrophages; 48 h
  THP-1 macrophage CC50: >20 µM

## AGKETIRQYLKNEIKKKGRKAWIAW [Syn-safencin-65]
[1]; [2]
  IC50: 1.01 µM
THP-1 macrophages
  THP-1 macrophage CC50: < 20 µM

## AGKETIRQYLKNKIKKKWRKAVIAW [Syn-safencin-51]
[1]; [2]
  IC50: 6.36 µM
THP-1 macrophages
  THP-1 macrophage CC50: < 20 µM

## AGKETIRQYLKNKWKKKGRKAVIAW [Syn-safencin-43]
[1]; [2]
  IC50: 11.2 µM
THP-1 macrophages
  THP-1 macrophage CC50: < 20 µM

## AGKETIRQYWKNKIKKKGRKAVIAW [Syn-safencin-35]
[1]; [2]
  IC50: 0.29 µM
THP-1 macrophages
  THP-1 macrophage CC50: < 20 µM

## AGKETIRWFLKKKIWEGKKRATIAW [Syn-larvacin-52]
[1]; [2]
  IC50: 1.86 µM
THP-1 macrophages
  THP-1 macrophage CC50: < 20 µM

## AGKEWIFQRLKKKIQEKGKRATIAW [Syn-larvacin-19]
[1]; [2]
  IC50: 0.73 µM
THP-1 macrophages
  THP-1 macrophage CC50: < 20 µM

## AGKKTIRQYLKNEIKKKGRKAVIAW [Syn-safencin 2]
[1]; 48 h
  IC50: 2.42 ± 0.09 µM
THP-1 macrophages
  THP-1 macrophage CC50: > 20 µM
THP-1 macrophages; 48 h
  THP-1 macrophage CC50: >20 µM

## AGKKTIRQYLKNEIKKKGRKAVIWW [Syn-safencin 82]
[1]; 48 h
  IC50: 0.375 ± 0.1 µM
THP-1 macrophages
  THP-1 macrophage CC50: > 20 µM
THP-1 macrophages; 48 h
  THP-1 macrophage CC50: >20 µM

## AGKKTIRQYLKNEIKKKGRKAVWAW [Syn-safencin-74]
[1]; [2]
  IC50: 3.51 µM
THP-1 macrophages
  THP-1 macrophage CC50: < 20 µM

## AGKKTIRQYLKNEIKKKGRKAWIAW [Syn-safencin 66]
[1]; 48 h
  IC50: 3.64 ± 0.1 µM
THP-1 macrophages
  THP-1 macrophage CC50: > 20 µM
THP-1 macrophages; 48 h
  THP-1 macrophage CC50: >20 µM

## AGKKTIRQYLKNKIKKKGRKAVWAW [Syn-safencin-76]
[1]; [2]
  IC50: 16.3 µM
THP-1 macrophages
  THP-1 macrophage CC50: < 20 µM

## AGKKTIRQYLKNKIKKKGRKAWIAW [Syn-safencin-68]
[1]; [2]
  IC50: 0.56 µM
THP-1 macrophages
  THP-1 macrophage CC50: < 20 µM

## AGKKTIRQYLKNKIKKKGRKWVIAW [Syn-safencin-60]
[1]; [2]
  IC50: 1.31 µM
THP-1 macrophages
  THP-1 macrophage CC50: < 20 µM

## AGKKTIRQYLKNKIKKKWRKAVIAW [Syn-safencin-52]
[1]; [2]
  IC50: 0.58 µM
THP-1 macrophages
  THP-1 macrophage CC50: < 20 µM

## AGKKTIRQYLKNKWKKKGRKAVIAW [Syn-safencin-44]
[1]; [2]
  IC50: 0.63 µM
THP-1 macrophages
  THP-1 macrophage CC50: < 20 µM

## AGKKTIRQYWKNKIKKKGRKAVIAW [Syn-safencin-36]
[1]; [2]
  IC50: 1.29 µM
THP-1 macrophages
  THP-1 macrophage CC50: < 20 µM

## AGRQALTKYLLEELRKRGKKWFIAW [Syn-xiamencin-36]
[1]; [3]
  IC50: 1.52 µM
THP-1 macrophages
  THP-1 macrophage CC50: < 20 µM

## AGRQALTKYLLEELRKRWKKAFIAW [Syn-xiamencin-20]
[1]; [2]
  IC50: 0.47 µM
THP-1 macrophages
  THP-1 macrophage CC50: < 20 µM

## AGRQALTLELKEYLRKRGKKWFIAW [Syn-xiamencin-35]
THP-1 macrophages
  THP-1 macrophage CC50: < 20 µM

## AGRQALTLELKEYLRKRWKKAFIAW [Syn-xiamencin-19]
[1]; [2]
  IC50: 2.15 µM
THP-1 macrophages
  THP-1 macrophage CC50: < 20 µM

## AGRQALTLYLKEELRKFGKKWRIAW [Syn-xiamencin-37]
[1]; [3]
  IC50: 3.71 µM
THP-1 macrophages
  THP-1 macrophage CC50: < 20 µM

## AGRQALTLYLKEELRKFWKKARIAW [Syn-xiamencin-21]
[1]; [2]
  IC50: 0.59 µM
THP-1 macrophages
  THP-1 macrophage CC50: < 20 µM

## AGRQALTLYLKEELRKRGKKWFIAW [Syn-xiamencin-33]
[1]; [2]
  IC50: 2.66 µM
THP-1 macrophages
  THP-1 macrophage CC50: < 20 µM

## AGRQALTLYLKEELRKRWKIAFKAW [Syn-xiamencin-22]
[1]; [2]
  IC50: 2.21 µM
THP-1 macrophages
  THP-1 macrophage CC50: < 20 µM

## AGRQALWKYLLEELRKRGKKAFIAW [Syn-xiamencin-44]
[1]; [3]
  IC50: 1.18 µM
THP-1 macrophages
  THP-1 macrophage CC50: < 20 µM

## AGRQALWLYLKEELRKFGKKARIAW [Syn-xiamencin-45]
[1]; [3]
  IC50: 6.13 µM
THP-1 macrophages
  THP-1 macrophage CC50: < 20 µM

## AGRQALWLYLKEELRKRGKIAFKAW [Syn-xiamencin-46]
[1]; [3]
  IC50: 11.8 µM
THP-1 macrophages
  THP-1 macrophage CC50: < 20 µM

## AGRQWLTLELKEYLRKRGKKAFIAW [Syn-xiamencin-51]
[1]; [2]
  IC50: 3.66 µM
THP-1 macrophages
  THP-1 macrophage CC50: < 20 µM
